IC50 data for one molecule are collected here from patent US5387592A, “Substituted benzoxazole, benzthiazole, and benzimidazole derivatives as angiotensin II antagonists” (Imperial Chemical Industries PLC, priority 1991, dated 1995).

For the test, the target named is T1, AII receptors (Cavia porcellus, UniProt Q9WV26).
T1 construct: the source of cell surface membranes is the guinea pig adrenal gland; from tissue; host or cells: guinea pig adrenal gland, cell surface membrane fraction
T1 sequence (Q9WV26 1-359): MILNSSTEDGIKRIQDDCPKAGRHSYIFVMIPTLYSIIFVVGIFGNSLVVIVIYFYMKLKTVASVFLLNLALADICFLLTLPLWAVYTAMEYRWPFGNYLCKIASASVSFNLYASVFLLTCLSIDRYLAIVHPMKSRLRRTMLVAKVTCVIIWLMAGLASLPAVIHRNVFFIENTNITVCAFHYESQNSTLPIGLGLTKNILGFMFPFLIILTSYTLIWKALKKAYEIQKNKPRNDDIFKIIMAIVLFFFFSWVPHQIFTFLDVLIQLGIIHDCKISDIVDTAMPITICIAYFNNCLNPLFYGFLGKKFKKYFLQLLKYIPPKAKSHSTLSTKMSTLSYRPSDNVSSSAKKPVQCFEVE
The test can be described thus: Test A: displacement of radiolabelled AII binding from guinea pig adrenal gland membrane fraction. The following applies: guinea pig adrenal gland membranes; read-out: IC50 (concentration for 50% displacement of radiolabelled AII binding). The method, then:
This in vitro procedure involves the incubation of the test compound initially at a concentration of 100 micromolar (or less) in a buffered mixture containing fixed concentrations of radiolabelled AII and a cell surface membrane fraction prepared from a suitable angiotensin target tissue. In this test, the source of cell surface membranes is the guinea pig adrenal gland which is well known to respond to AII. Interaction of the radiolabelled AII with its receptors (assessed as radiolabel bound to the particulate membrane fraction following removal of unbound radiolabel by a rapid filtration procedure such as is standard in such studies) is antagonized by compounds which also bind to the membrane receptor sites and the degree of antagonism (observed in the test as displacement of membrane-bound radioactivity) is determined readily by comparing the receptor-bound radioactivity in the presence of the test compound at the specified test concentration with a control value determined in the absence of the test compound. Using this procedure compounds showing at least 50% displacement of radiolabelled AII binding at a concentration of 10^-4 M are retested at lower concentrations to determine their potency. […]

Where a name gives a salt, the structure may show the parent alone.

As to `CCc1cc(OCc2ccc3oc(-c4ccccc4-c4nnn[nH]4)nc3c2)c2c(n1)CCCC2` [Example 3, 2-ethyl-5,6,7,8-tetrahydro-4-[(2-(2-(1H-tetrazol-5-yl)phenyl)benzoxazol-5-yl)methoxy]quinoline hydrochloride], the IC50 is 0.2 µM.
